#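 1) Cells in 96-well plates. 2) Compound, 48 h, 5 concentrations. 3) Linear interpolation between surrounding doses. 4) Unreached endpoint = highest concentration. GI50 = concentration required for 50% inhibition of growth.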 Calls of active or inactive are those of the source. Cut-off read from the data, not from the text of the source: active = GI50 up to about 1.1 µM and inactive = higher.
# Columns and labels:
# Test in all cases: NCI tumour cell line growth inhibition, 48 h
# SN12C = system: SN12C
# CAKI-1 = system: CAKI-1
# OVCAR-8 = system: OVCAR-8
# HT-29 = system: HT-29
# SW-620 = system: SW-620
# PC-3 = system: PC-3
# HCC 2998 = system: HCC 2998
# NCI/ADR-RES = system: NCI/ADR-RES
# EKVX = system: EKVX
# U-251 = system: U-251
# RPMI-8226 = system: RPMI-8226
# SNB-75 = system: SNB-75
# SF-295 = system: SF-295
# UO-31 = system: UO-31
# DU-145 = system: DU-145
# OVCAR-4 = system: OVCAR-4
# HOP-92 = system: HOP-92
# SR = system: SR
# K562 = system: K562
# RXF 393 = system: RXF 393
Structure (SMILES),GI50 (SN12C),GI50 (CAKI-1),GI50 (OVCAR-8),GI50 (HT-29),GI50 (SW-620),GI50 (PC-3),GI50 (HCC 2998),GI50 (NCI/ADR-RES),GI50 (EKVX),GI50 (U-251),GI50 (RPMI-8226),GI50 (SNB-75),GI50 (SF-295),GI50 (UO-31),GI50 (DU-145),GI50 (OVCAR-4),GI50 (HOP-92),GI50 (SR),GI50 (K562),GI50 (RXF 393)
CC(=O)ON(C(C)=O)c1ccc(-c2nc3ccccc3s2)cc1C,31 µM (inactive),10.4 µM (inactive),52.1 µM (inactive),32 µM (inactive),38.3 µM (inactive),30.5 µM (inactive),67.6 µM (inactive),21.3 µM (inactive),2.77 µM (inactive),10.4 µM (inactive),48.2 µM (inactive),74.1 µM (inactive),31.6 µM (inactive),50.2 µM (inactive),37.7 µM (inactive),51.4 µM (inactive),43.6 µM (inactive),29.2 µM (inactive),45.2 µM (inactive),–
c1cncc(CNCc2cccnc2)c1,> 100 µM (inactive),> 100 µM (inactive),> 100 µM (inactive),> 100 µM (inactive),> 100 µM (inactive),> 100 µM (inactive),–,> 100 µM (inactive),> 100 µM (inactive),> 100 µM (inactive),> 100 µM (inactive),> 100 µM (inactive),> 100 µM (inactive),> 100 µM (inactive),> 100 µM (inactive),> 100 µM (inactive),> 100 µM (inactive),> 100 µM (inactive),> 100 µM (inactive),> 100 µM (inactive)
O=C(O)c1cc(O)nc(SCc2ccccc2)n1,> 100 µM (inactive),> 100 µM (inactive),> 100 µM (inactive),> 100 µM (inactive),> 100 µM (inactive),> 100 µM (inactive),–,> 100 µM (inactive),> 100 µM (inactive),> 100 µM (inactive),–,> 100 µM (inactive),> 100 µM (inactive),> 100 µM (inactive),> 100 µM (inactive),> 100 µM (inactive),> 100 µM (inactive),> 100 µM (inactive),> 100 µM (inactive),> 100 µM (inactive)
c1ccc(CSP234N5CCN2CCN3CCN4CC5)c(CSP234N5CCN2CCN3CCN4CC5)c1,14.4 µM (inactive),> 100 µM (inactive),> 100 µM (inactive),37.2 µM (inactive),> 100 µM (inactive),> 100 µM (inactive),> 100 µM (inactive),> 100 µM (inactive),> 100 µM (inactive),> 100 µM (inactive),27.7 µM (inactive),28.3 µM (inactive),> 100 µM (inactive),81.1 µM (inactive),> 100 µM (inactive),> 100 µM (inactive),46.2 µM (inactive),30.8 µM (inactive),–,–
N#CC(C#N)=CNC(=S)c1ccncc1,87.5 µM (inactive),46.7 µM (inactive),> 100 µM (inactive),46.9 µM (inactive),64.9 µM (inactive),> 100 µM (inactive),59.8 µM (inactive),> 100 µM (inactive),> 100 µM (inactive),> 100 µM (inactive),36.9 µM (inactive),35.4 µM (inactive),> 100 µM (inactive),5.6 µM (inactive),> 100 µM (inactive),> 100 µM (inactive),–,18.7 µM (inactive),39.1 µM (inactive),> 100 µM (inactive)
Cn1c(=O)c(Br)c(C=O)n(CCO[N+](=O)[O-])c1=O,4.34 µM (inactive),–,2.52 µM (inactive),–,2.26 µM (inactive),9.14 µM (inactive),15.4 µM (inactive),1.74 µM (inactive),2.78 µM (inactive),3.02 µM (inactive),2.26 µM (inactive),12.2 µM (inactive),–,> 10 µM (inactive),27.2 µM (inactive),–,2.72 µM (inactive),2.16 µM (inactive),2.66 µM (inactive),–
CN1C(NCCO)=NS(=O)(=O)c2ccccc21,> 100 µM (inactive),> 100 µM (inactive),> 100 µM (inactive),> 100 µM (inactive),> 100 µM (inactive),> 100 µM (inactive),> 100 µM (inactive),> 100 µM (inactive),> 100 µM (inactive),> 100 µM (inactive),–,–,> 100 µM (inactive),> 100 µM (inactive),> 100 µM (inactive),> 100 µM (inactive),> 100 µM (inactive),8.75 µM (inactive),> 100 µM (inactive),> 100 µM (inactive)
CC(C)(C)NC(NC(C)(C)C)=C(C(Cl)=C(Cl)Cl)[N+](=O)[O-],> 100 µM (inactive),> 100 µM (inactive),> 100 µM (inactive),> 100 µM (inactive),> 100 µM (inactive),> 100 µM (inactive),> 100 µM (inactive),> 100 µM (inactive),> 100 µM (inactive),> 100 µM (inactive),> 100 µM (inactive),> 100 µM (inactive),> 100 µM (inactive),42.7 µM (inactive),> 100 µM (inactive),> 100 µM (inactive),–,> 100 µM (inactive),> 100 µM (inactive),> 100 µM (inactive)
C#CC(O)/C=C/CCCCCCC#CC/C=C\CC#CCCCCCC/C=C/C(O)C#C (stereo not given),1.66 µM (inactive),2.29 µM (inactive),3.03 µM (inactive),2.06 µM (inactive),2.35 µM (inactive),11.6 µM (inactive),1.8 µM (inactive),2.55 µM (inactive),2.3 µM (inactive),12.4 µM (inactive),–,7.19 µM (inactive),13.9 µM (inactive),0.264 µM (active),3.01 µM (inactive),2.57 µM (inactive),2.4 µM (inactive),2.54 µM (inactive),2.05 µM (inactive),14.1 µM (inactive)
COc1ccc(NC(=O)CC(=O)N2N=C(N3CCCCC3)CC2c2ccccc2)cc1 (stereo not given),> 100 µM (inactive),> 100 µM (inactive),> 100 µM (inactive),> 100 µM (inactive),> 100 µM (inactive),> 100 µM (inactive),> 100 µM (inactive),> 100 µM (inactive),> 100 µM (inactive),> 100 µM (inactive),–,> 100 µM (inactive),> 100 µM (inactive),> 100 µM (inactive),> 100 µM (inactive),> 100 µM (inactive),99.5 µM (inactive),> 100 µM (inactive),–,> 100 µM (inactive)
CSC1(Cc2ccccn2)C(=O)Nc2cccc([N+](=O)[O-])c21 (stereo not given),> 100 µM (inactive),> 100 µM (inactive),> 100 µM (inactive),> 100 µM (inactive),56.4 µM (inactive),> 100 µM (inactive),> 100 µM (inactive),> 100 µM (inactive),> 100 µM (inactive),> 100 µM (inactive),78 µM (inactive),> 100 µM (inactive),> 100 µM (inactive),> 100 µM (inactive),> 100 µM (inactive),> 100 µM (inactive),> 100 µM (inactive),> 100 µM (inactive),–,–
Cc1ccsc1C(=O)C(CC(=O)c1cccs1)c1ccsc1 (stereo not given),> 100 µM (inactive),> 100 µM (inactive),> 100 µM (inactive),93.1 µM (inactive),> 100 µM (inactive),45.8 µM (inactive),> 100 µM (inactive),37.7 µM (inactive),79.6 µM (inactive),> 100 µM (inactive),–,> 100 µM (inactive),> 100 µM (inactive),54.1 µM (inactive),> 100 µM (inactive),> 100 µM (inactive),> 100 µM (inactive),62.8 µM (inactive),> 100 µM (inactive),> 100 µM (inactive)
CCc1nn(CN2CCN(C)CC2)c(=S)n1/N=C\c1ccc(-c2ccc([N+](=O)[O-])cc2)o1,58.2 µM (inactive),74.5 µM (inactive),35.5 µM (inactive),> 100 µM (inactive),–,54.3 µM (inactive),48.5 µM (inactive),25.9 µM (inactive),43.4 µM (inactive),43.6 µM (inactive),39.5 µM (inactive),–,40.7 µM (inactive),56.6 µM (inactive),50.2 µM (inactive),44 µM (inactive),30.4 µM (inactive),64.1 µM (inactive),40 µM (inactive),26.8 µM (inactive)
CO/C=C/C=C(\C#N)C(=O)OC,> 100 µM (inactive),> 100 µM (inactive),> 100 µM (inactive),> 100 µM (inactive),> 100 µM (inactive),> 100 µM (inactive),> 100 µM (inactive),> 100 µM (inactive),> 100 µM (inactive),> 100 µM (inactive),> 100 µM (inactive),60.3 µM (inactive),> 100 µM (inactive),> 100 µM (inactive),> 100 µM (inactive),> 100 µM (inactive),> 100 µM (inactive),> 100 µM (inactive),> 100 µM (inactive),–
CCn1nc(-c2ccccc2)c2c1N(C)c1ccccc1-n1c(-c3ccccc3)nnc1-2,16.4 µM (inactive),–,20.9 µM (inactive),–,16.1 µM (inactive),13.2 µM (inactive),15.9 µM (inactive),14.9 µM (inactive),–,15 µM (inactive),9.68 µM (inactive),3.69 µM (inactive),–,14.2 µM (inactive),16.1 µM (inactive),–,16.3 µM (inactive),14.4 µM (inactive),17.1 µM (inactive),–

# Source: ChEMBL document CHEMBL1201862, “PubChem BioAssay data set” (2004)
